# According to patent publication US20220267310A1, “QUINAZOLINE AND CINNOLINE DERIVATIVES AS DNA-PK INHIBITOR” (MEDSHINE DISCOVERY INC., priority 2019, published 2022):
# Target: T1, DNA-PK (h) (Homo sapiens, UniProt P78527)
# T1 construct: Eurofins Pharma Discovery Service (contract assay)
# Assay: DNA-PK kinase inhibitory activity (HTRF, Eurofins)
# Assay type: biochemical
# Details: ATP: 10 μM
# Method: This experiment was tested at Eurofins Pharma Discovery Service, Reaction Biology Corp. (RBC)
# […] DNA-PK: Mg/ATP; GST-cMyc-p53; EDTA; Ser15 antibody; ATP: 10 μM; biotinylated phosphatidylinositol-3,4,5-triphosphate; GST label GRP1 PH domain; streptavidin and phycocyanin; europium-labelled monoclonal antibody against GST.
# DNA-PK (h) was incubated in a determination buffer containing 50 nM GST-cMyc-p53 and Mg/ATP (density as required). The reaction was initiated by adding a mixture of Mg/ATP. After incubating at room temperature for 30 min, a termination solution containing EDTA was added to terminate the reaction. Finally, a detection buffer (containing labeled anti-GST monoclonal antibody and europium-labeled anti-phosphate Ser15 antibody against phosphorylated p53) was added. Then, the board was read in time-resolved fluorescence mode, and a Homogeneous Time Resolved Fluorescence (HTRF) signal was measured according to the formula HTRF=10000×(Em665 nm/Em620 nm).
row,SMILES,IC50 [nM]
1,"COc1ccc(C(O)c2cc(-c3ccnc4cc(N5CCOCC5)ccc34)c(F)cc2Cl)nn1 (single isomer, unassigned) [Embodiment 1]",82
2,"COc1ccc(C(O)c2cc(-c3cnnc4cc(N5CCOCC5)ccc34)c(F)cc2Cl)nn1 (single isomer, unassigned) [Embodiment 4]",587
3,"COc1ccc(C(O)c2cc(-c3ccnc4c(Cl)c(N5CCOCC5)ccc34)c(F)cc2Cl)nn1 (single isomer, unassigned) [Embodiment 5]",307
4,"COc1ccc(C(O)c2cc(-c3ccnc4c(Cl)c(N5CCOCC5)ccc34)c(F)cc2Cl)nn1 (single isomer, unassigned) [Embodiment 6]",8
5,"COc1ccc(C(O)c2cc(-c3cnnc4c(F)c(N5CCOCC5)ccc34)c(F)cc2Cl)nn1 (single isomer, unassigned) [Embodiment 8]",138
6,"COc1ccc(C(O)c2cc(-c3cc(N)nc4c(F)c(N5CCOCC5)ccc34)c(F)cc2Cl)nn1 (single isomer, unassigned) [Embodiment 9]",840
7,"COc1ccc(C(O)c2cc(-c3cc(N)nc4c(F)c(N5CCOCC5)ccc34)c(F)cc2Cl)nn1 (single isomer, unassigned) [Embodiment 10]",0.5
8,"COc1ccc(C(O)c2cc(-c3cc(N)nc4cc(N5CCOCC5)ccc34)c(F)cc2Cl)nn1 (single isomer, unassigned) [Embodiment 12]",657
9,"COc1ccc(C(O)c2cc(-c3cc(N)nc4cc(N5CCOCC5)cc(F)c34)c(F)cc2Cl)nn1 (single isomer, unassigned) [Embodiment 14]",2.7
10,"COc1ccc(C(O)c2cc(-c3cc(C(F)F)nc4cc(N5CCOCC5)ccc34)c(F)cc2Cl)nn1 (single isomer, unassigned) [Embodiment 15]",71
11,"COc1ccc(C(O)c2cc(-c3cc(C(F)F)nc4cc(N5CCOCC5)ccc34)c(F)cc2Cl)nn1 (single isomer, unassigned) [Embodiment 16]",4250
12,"Cc1nccnc1C(O)c1cc(-c2cnnc3c(F)c(N4CCOCC4)cc(F)c23)c(F)cc1Cl (single isomer, unassigned) [Embodiment 18]",33
13,"COc1ccc(C(O)c2cc(-c3cnnc4c(F)c(N5CCOCC5)cc(F)c34)c(F)cc2Cl)nn1 (single isomer, unassigned) [Embodiment 20]",136
14,"COc1ccc(C(O)c2cc(-c3ccnc4c(F)c(N5CCOCC5)cc(F)c34)c(F)cc2Cl)nn1 (single isomer, unassigned) [Embodiment 21]",76
15,"Cc1nccnc1C(O)c1cc(-c2ccnc3c(F)c(N4CCOCC4)cc(F)c23)c(F)cc1Cl (single isomer, unassigned) [Embodiment 24]",5.7
16,"COc1ccc(C(O)c2cc(-c3cc(OC)nc4cc(N5CCOCC5)ccc34)c(F)cc2Cl)nn1 (single isomer, unassigned) [Embodiment 25]",13100
17,COc1ccc(C(O)c2cc(-c3cnnc4c(F)c(N5CCOCC5)ccc34)c(F)cc2Cl)nn1 (centres unmarked) [Embodiment 7],1.5
18,COc1ccc(C(O)c2cc(-c3cc(N)nc4cc(N5CCOCC5)ccc34)c(F)cc2Cl)nn1 (centres unmarked) [Embodiment 11],4.7
19,COc1ccc(C(O)c2cc(-c3cc(N)nc4cc(N5CCOCC5)cc(F)c34)c(F)cc2Cl)nn1 (centres unmarked) [Embodiment 13],141
20,Cc1nccnc1C(O)c1cc(-c2cnnc3c(F)c(N4CCOCC4)cc(F)c23)c(F)cc1Cl (centres unmarked) [Embodiment 17],15
21,Cc1nccnc1C(O)c1cc(-c2ccnc3c(F)c(N4CCOCC4)cc(F)c23)c(F)cc1Cl (centres unmarked) [Embodiment 23],8.7

# Tested on: human small cell lung cancer NCI-H69 xenograft tumor model
# Assay: NCI-H69 xenograft, mono and combination with etoposide, 24-day experiment (Table 8)
# Assay type: in vivo, BALB/c nude mice
# Details: etoposide 10 mg/kg alone
# Method: Experiment example 3: in vivo pharmacodynamics of human small cell lung cancer NCI-H69 cell subcutaneous xenograft tumor BALB/c nude mouse model:
# Experimental animals: Female BALB/c nude mice, 6-8 weeks old, weighing 15-22 grams; supplier: Shanghai Linchang Biotechnology Co., LTD. (Linchang, Shanghai)
# Human small cell lung cancer NCI-H69 cells (ATCC, item number: HTB-119 and ECACC-95111733) were cultured in vitro in a culture condition of RPMI-1640 medium with 10% fetal bovine serum, 100 U/mL penicillin and 100 μg/mL streptomycin, incubated at 37° C. and 5% CO2. Conventional passage was carried out twice a week. When cell saturation was 80%-90% and the number reaches the requirement, cells were collected, counted and inoculated.
# 0.2 mL (10×10^6) NCI-H69 cells (with matrix glue, and volume ratio of 1:1) were subcutaneously inoculated into a right back of each mouse, and group administration was initiated when the average tumor volume reaches about 110-120 mm^3.
# The tested compound was prepared as a 5 mg/mL clarified solution with 10% DMSO+50% polyethylene glycol 400+40% water as the solvent.
# The experimental indicators refers to study whether tumor growth was inhibited, delayed, or cured. Tumor diameter was measured twice a week with a vernier caliper. The calculation formula of the tumor volume was V=0.5a×b^2, and a and b represent the long diameter and short diameter of the tumor, respectively.
# The antitumor efficacy of the compound was evaluated by TGI (%) or relative tumor proliferation rate T/C (%). TGI (%) reflects the tumor growth inhibition rate. The calculation of TGI (%): TGI (%)=[1−(average tumor volume at the end of administration of a certain treatment group−average tumor volume at the beginning of administration of the treatment group)/(average tumor volume at the end of treatment in solvent control group−average tumor volume at the beginning of treatment in solvent control group)]×control group.
# Relative tumor proliferation rate T/C (%): the calculation formula was as follows: T/C %=[…] TRTV/CRTV group (TRTV: treatment group RTV; CRTV: negative control group RTV). According to results of tumor measurement, Relative Tumor Volume (RTV) was calculated by the formula RTV=Vt/V0, where V0 was the average tumor volume measured in group administration (i.e., d0), and Vt was the average tumor volume measured in a certain single measurement. TRTV and CRTV collect data on the same day.
# Statistic analysis includes an average value and a standard error (SEM) of tumor volume at each time point for each group. […] If there was no significant difference in F value, Dunnet (2-sided) method was applied to analysis. All data were analyzed using SPSS 17.0. P<0.05 was considered as having a significant difference.
SMILES,RTV (24th day),T/C (%) (24th day),TGI (%) (24th day)
"COc1cc([C@@H]2c3cc4c(cc3[C@@H](O[C@@H]3O[C@@H]5CO[C@@H](C)O[C@H]5[C@H](O)[C@H]3O)[C@H]3COC(=O)[C@H]23)OCO4)cc(OC)c1O [Etoposide, etoposide, reference compound]",6.09 ± 0.85,75.6,33.4

# Same assay, conditions: etoposide 10 mg/kg alone; average ± SEM, n = 9
SMILES,Tumor volume (mm^3) (0th day),Tumor volume (mm^3) (24th day)
"COc1cc([C@@H]2c3cc4c(cc3[C@@H](O[C@@H]3O[C@@H]5CO[C@@H](C)O[C@H]5[C@H](O)[C@H]3O)[C@H]3COC(=O)[C@H]23)OCO4)cc(OC)c1O [Etoposide, etoposide, reference compound]",114 ± 9,654 + 48 mm^3
